Measurements reported in patent US7776918B2, “Remedy for viral disease” (Chugai Seiyaku Kabushiki Kaisha, priority 2003, dated 2010).

Assays:
[1] = Cytotoxicity test (Cell Counting Kit-8); type: cell-based; settings: human, Firefly luciferase HCV replicon cells (3-1); Cell Counting Kit-8, absorbance 450 nm, after 3 days culture with compound
Experimental: (§1) Firefly luciferase HCV replicon cells (3-1) were suspended in Dulbecco's MEM (Gibco Cat. No. 10569-010) containing 5% fetal calf serum (Hyclone Cat. No. SH30071.03) and inoculated into a 96-well plate at 5000 cells/well followed by culturing overnight at 5% CO2 and 37° C. After about 20 hours, 10 μl of a diluted compound was added to each well followed by additional culturing for 3 days. Two series of the assay plates were prepared, and assay was conducted using white plates for one series while using clear plates for the other series. Following completion of culturing, the white plates were used with the Steady-Glo Luciferase Assay System (Promega Cat. No. E2520). More specifically, 100 μl of reagent was placed in each well and after mixing 3 to 4 times with a pipette and allowing to stand for 5 minutes, luminescence was measured with the 1450 MicroBeta TRILUX (WALLAC). The value in the absence of cell addition was used to indicate the background value, and that value was subtracted from all values to calculate the IC50 value (concentration resulting in 50% inhibition) of the drug based on 0% inhibition for the value obtained in the absence of drug addition.
(§2) The Cell Counting Kit-8 (Dojindo Cat. No. CK04) was used for measurement of cytotoxicity. More specifically, 10 μl of the Cell Counting Kit-8 was added to the clear plates followed by incubating at 37° C. for 30 to 60 minutes. Absorbance at a wavelength of 450 nm and control wavelength of 630 nm was measured with a 96-well plate reader. The value obtained in the absence of cell addition was used as a background value, and that value was subtracted from all values to calculate the CC50 value (concentration resulting in 50% cell inhibition) of the drug based on 0% inhibition for the value obtained in the absence of drug addition.

[2] = test system: Firefly luciferase HCV replicon cells (3-1); experiment: Replicon assay (firefly luciferase HCV replicon); type: cell-based; settings: Hepatitis C virus, 72 h; luciferase luminescence after 3 days culture with compound, Huh7-derived replicon cells
Experimental: A construct was prepared in which luciferase gene derived from firefly was inserted as a reporter gene in HCV-RNA to assay the number of copies of HCV-RNA. The luciferase gene was inserted in a form that fuses with the neomycin resistance gene directly below IRES (Internal Ribosome Entry Site) of HCV gene in accordance with the method of Krieger, et al. (J. Virol. 75: 4614). After synthesizing the RNA in vitro, it was introduced into Huh7 cells by electroporation followed by isolation as G418 resistant clone.
as §1

immune reactions = settings: known from WO98/56755; cited from earlier work
Candida albicans = settings: known from WO98/56755; cited from earlier work
Cryptococcus neoformans = settings: known from WO98/56755; cited from earlier work
[3] = test system: Firefly luciferase HCV replicon cells (3-1); experiment: Cytotoxicity test (Cell Counting Kit-8); type: cell-based; settings: Cell Counting Kit-8, absorbance 450 nm, after 3 days culture with compound
Experimental: as §1, §2

Compound | CC50 at 3 days [1] | IC50 [2] | also measured
CCCCCCCCCCCCCC/C=C/[C@H](C(=O)N[C@@H](Cc1ccc(OCC=C(C)C)cc1)C(=O)O)[C@@](O)(CC(=O)O)C(=O)O (mixture of isomers) [Compound 13] | > 50000 nM | 100 nM | –
CCCCCCCC(=O)CCCCCC/C=C/[C@H](C(=O)N[C@@H](Cc1ccc(OCC=C(C)C)cc1)C(=O)O)[C@@](O)(CC(=O)O)C(=O)O [Compound 1] | > 5000 nM | 2 nM | effects that inhibit immune reactions (immune reactions): inhibit immune reactions; antimicrobial activity against Candida albicans (Candida albicans): antimicrobial activity; antimicrobial activity against Cryptococcus neoformans (Cryptococcus neoformans): antimicrobial activity
CCCCCCCC(=O)CCCCCC/C=C/[C@H](C(=O)N[C@@H](Cc1ccc(OCC=C(C)C)cc1)C(=O)O)[C@@](O)(CC(=O)OC)C(=O)O [Compound 2] | > 1000 nM | 128 nM | –
CCCCCCCC(=O)CCCCCC/C=C/[C@H](C(=O)N[C@@H](Cc1ccc(OCC=C(C)C)cc1)C(=O)OC)[C@@](O)(CC(=O)OC)C(=O)O [Compound 3] | > 1000 nM | 76 nM | –
CCCCCCC(O)C(=O)CCCCCC/C=C/[C@H](C(=O)N[C@@H](Cc1ccc(O)cc1)C(=O)O)[C@@](O)(CC(=O)O)C(=O)O (stereo partly shown) [Compound 4] | > 1000 nM | 103 nM | –
CCCCCCCC(=O)CCCCCC/C=C/[C@H](C(=O)N[C@@H](Cc1c[nH]c2ccccc12)C(=O)O)[C@@](O)(CC(=O)O)C(=O)O [Compound 5] | > 1000 nM | 82 nM | –
CCCCCCC(O)C(=O)CCCCCC/C=C/[C@H](C(=O)N[C@@H](Cc1ccc(OCC=C(C)C)cc1)C(=O)O)[C@@](O)(CC(=O)O)C(=O)O (stereo partly shown) [Compound 6] | > 1000 nM | 7 nM | –
CCCCCCCC(=O)CCCCCC/C=C/[C@H](C(=O)N[C@@H](Cc1ccc(OCCC(C)C)cc1)C(=O)O)[C@@](O)(CC(=O)O)C(=O)O [Compound 7] | > 5000 nM | 2 nM | –
CCCCCCCC(O)CCCCCC/C=C/[C@H](C(=O)N[C@@H](Cc1ccc(OCC=C(C)C)cc1)C(=O)O)[C@@](O)(CC(=O)O)C(=O)O (stereo partly shown) [Compound 8] | > 5000 nM | 5 nM | –
CCCCCCCC(=O)CCCCCC/C=C/[C@H](C(=O)N[C@@H](Cc1ccc(O)cc1)C(=O)O)[C@@](O)(CC(=O)O)C(=O)O [Compound 9] | > 5000 nM | 20 nM | –
CCCCCCCC(=O)CCCCCCCC[C@H](C(=O)N[C@@H](Cc1ccc(O)cc1)C(=O)O)[C@@](O)(CC(=O)O)C(=O)O [Compound 10] | > 50000 nM | 245 nM | –
CCCCCCCC(=O)CCCCCC/C=C/[C@H](C(=O)N[C@@H](Cc1ccc(OCC=C(C)C)cc1)C(N)=O)[C@@](O)(CC(N)=O)C(N)=O [Compound 11] | > 5000 nM | 262 nM | –
CCCCCCCC(=O)CCCCCCCC[C@H](C(=O)N[C@@H](Cc1ccc(OCCC(C)C)cc1)C(=O)O)[C@@](O)(CC(=O)O)C(=O)O [Compound 12] | > 5000 nM | 72 nM | –
CCCCCCC/C(CCCCCC/C=C/[C@H](C(=O)N[C@@H](Cc1ccc(OCC=C(C)C)cc1)C(=O)O)[C@@](O)(CC(=O)O)C(=O)O)=N/OCCN [Compound 14] | 22000 nM | 20 nM | –
CCCCCCCC(CCCCCC/C=C/[C@H](C(=O)N[C@@H](Cc1ccc(OCC=C(C)C)cc1)C(=O)O)[C@@](O)(CC(=O)O)C(=O)O)=NOC [Compound 15] | > 50000 nM | 20 nM | –
CC#CCOc1ccc(C[C@H](NC(=O)[C@@H](/C=C/CCCCCCC(=O)CCCCCCC)[C@@](O)(CC(=O)O)C(=O)O)C(=O)O)cc1 [Compound 21] | – | – | CC50 [3]: > 5000 nM
CCCCCCCC(=O)CCCCCC/C=C/[C@H](C(=O)N[C@@H](Cc1ccc(OC)c(OC)c1)C(=O)O)[C@@](O)(CC(=O)O)C(=O)O [Compound 22] | – | – | CC50 [3]: > 1000 nM
CCCCCCCC(=O)CCCCCC/C=C/[C@H](C(=O)N[C@@H](Cc1ccc(OCCCC)cc1)C(=O)O)[C@@](O)(CC(=O)O)C(=O)O [Compound 23] | > 1000 nM | 1 nM | –
CCCCCCCC(=O)CCCCCC/C=C/[C@H](C(=O)N[C@@H](Cc1ccc(OCCC)cc1)C(=O)O)[C@@](O)(CC(=O)O)C(=O)O [Compound 24] | > 1000 nM | 2 nM | –
C=CCOc1ccc(C[C@H](NC(=O)[C@@H](/C=C/CCCCCCC(=O)CCCCCCC)[C@@](O)(CC(=O)O)C(=O)O)C(=O)O)cc1 [Compound 25] | > 1000 nM | 1 nM | –
CCCCCCCC(=O)CCCCCC/C=C/[C@H](C(=O)N[C@@H](Cc1ccc(OC)cc1)C(=O)O)[C@@](O)(CC(=O)O)C(=O)O [Compound 26] | > 1000 nM | 3 nM | –
